Source: US7632972B2, “Compounds and methods for treatment of cancer and modulation of programmed cell death for melanoma and other cancer cells” (The Board of Trustees of the University of Illionis, priority 2003, dated 2009)

Legend:
Format in all cases: cell-based, human
COLO 205 = assay: NCI 60 cell line screen (SRB), Colon Cancer
Source text: (§1) The operation of this screen utilizes 60 different human tumor cell lines, representing leukemia, melanoma and cancers of the lung, colon, brain, ovary, breast, prostate, and kidney. The aim is to prioritize for further evaluation, synthetic compounds or natural product samples showing selective growth inhibition or cell killing of particular tumor cell lines. This screen is unique in that the complexity of a 60 cell line dose response produced by a given compound results in a biological response pattern which can be utilized in pattern recognition algorithms. Using these algorithms, it is possible to assign a putative mechanism of action to a test compound, or to determine that the response pattern is unique and not similar to that of any of the standard prototype compounds included in the NCl database (see DTP Overview tab). In addition, following characterization of various cellular molecular targets in the 60 cell lines, it may be possible to select compounds most likely to interact with a specific molecular target.
(§2) The human tumor cell lines of the cancer screening panel are grown in RPMI 1640 medium containing 5% fetal bovine serum and 2 mM L-glutamine. For a typical screening experiment, cells are inoculated into 96 well microtiter plates in 100 μL at plating densities ranging from 5,000 to 40,000 cells/well depending on the doubling time of individual cell lines. After cell inoculation, the microtiter plates are incubated at 37° C., 5% CO2, 95% air and 100% relative humidity for 24 h prior to addition of experimental drugs.
(§3) After 24 h, two plates of each cell line are fixed in situ with TCA, to represent a measurement of the cell population for each cell line at the time of drug addition (Tz). Experimental drugs are solubilized in dimethyl sulfoxide at 400-fold the desired final maximum test concentration and stored frozen prior to use. At the time of drug addition, an aliquot of frozen concentrate is thawed and diluted to twice the desired final maximum test concentration with complete medium containing 50 μg/ml gentamicin. Additional four, 10-fold or ½ log serial dilutions are made to provide a total of five drug concentrations plus control. Aliquots of 100 μl of these different drug dilutions are added to the appropriate microtiter wells already containing 100 μl of medium, resulting in the required final drug concentrations.
(§4) Following drug addition, the plates are incubated for an additional 48 h at 37° C., 5% CO2, 95% air, and 100% relative humidity. For adherent cells, the assay is terminated by the addition of cold TCA. Cells are fixed in situ by the gentle addition of 50 μl of cold 50% (w/v) TCA (final concentration, 10% TCA) and incubated for 60 minutes at 4° C. The supernatant is discarded, and the plates are washed five times with tap water and air dried. Sulforhodamine B (SRB) solution (100 μl) at 0.4% (w/v) in 1% acetic acid is added to each well, and plates are incubated for 10 minutes at room temperature. After staining, unbound dye is removed by washing five times with 1% acetic acid and the plates are air dried. Bound stain is subsequently solubilized with 10 mM trizma base, and the absorbance is read on an automated plate reader at a wavelength of 515 nm. For suspension cells, the methodology is the same except that the assay is terminated by fixing settled cells at the bottom of the wells by gently adding 50 μl of 80% TCA (final concentration, 16% TCA). Using the seven absorbance measurements [time zero, (Tz), control growth, (C), and test growth in the presence of drug at the five concentration levels (Ti)], the percentage growth is calculated at each of the drug concentrations levels. Percentage growth inhibition is calculated as: [(Ti−Tz)/(C−Tz)]×100 for concentrations for which Ti>/=Tz [(Ti−Tz)/Tz]×100 for concentrations for which Ti<Tz.
(§5) Three dose response parameters are calculated for each experimental agent. […]

HCT-116 = assay: NCI 60 cell line screen (SRB), Colon Cancer
Source text: as §1, §2, §3, §4, §5

OVCAR-3 = assay: NCI 60 cell line screen (SRB), Ovarian Cancer
Source text: as §1, §2, §3, §4, §5

CAKI-1 = assay: NCI 60 cell line screen (SRB), Renal Cancer
Source text: as §1, §2, §3, §4, §5

ACHN = assay: NCI 60 cell line screen (SRB), Renal Cancer
Source text: as §1, §2, §3, §4, §5

SN12C = assay: NCI 60 cell line screen (SRB), Renal Cancer
Source text: as §1, §2, §3, §4, §5

UO-31 = assay: NCI 60 cell line screen (SRB), Renal Cancer
Source text: as §1, §2, §3, §4, §5

786-0 = assay: NCI 60 cell line screen (SRB), Renal Cancer
Source text: as §1, §2, §3, §4, §5

TK-10 = assay: NCI 60 cell line screen (SRB), Renal Cancer
Source text: as §1, §2, §3, §4, §5

[1] = read-out: LC50 (the source's name)

Structure (SMILES): COc1cccc(CCNC(=O)CC(c2ccccc2)(c2ccccc2)c2ccccc2)c1 [Compound Z3]
- GI50 (COLO 205; COLO 205): 12.8 µM
- TGI (COLO 205; COLO 205): >1.00E−04
- Percent Growth (COLO 205; COLO 205, Log10 Concentration −4.0): 27%
- Percent Growth (COLO 205; COLO 205, Log10 Concentration −5.0): 53%
- Percent Growth (COLO 205; COLO 205, Log10 Concentration −6.0): 106%
- Percent Growth (COLO 205; COLO 205, Log10 Concentration −7.0): 117%
- Percent Growth (COLO 205; COLO 205, Log10 Concentration −8.0): 99%
- CC50 (COLO 205; COLO 205, read-out: LC50 (the source's name)): > 100 µM
- GI50 (HCT-116; HCT-116): 2580 nM
- TGI (HCT-116; HCT-116): 2.67E−05
- Percent Growth (HCT-116; HCT-116, Log10 Concentration −4.0): −22%
- Percent Growth (HCT-116; HCT-116, Log10 Concentration −5.0): 16%
- Percent Growth (HCT-116; HCT-116, Log10 Concentration −6.0): 74%
- Percent Growth (HCT-116; HCT-116, Log10 Concentration −7.0): 91%
- Percent Growth (HCT-116; HCT-116, Log10 Concentration −8.0): 97%
- CC50 (HCT-116; HCT-116, read-out: LC50 (the source's name)): > 100 µM
- GI50 (OVCAR-3; OVCAR-3): 4.77 µM
- TGI (OVCAR-3; OVCAR-3): >1.00E−04
- Percent Growth (OVCAR-3; OVCAR-3, Log10 Concentration −4.0): 19%
- Percent Growth (OVCAR-3; OVCAR-3, Log10 Concentration −5.0): 40%
- Percent Growth (OVCAR-3; OVCAR-3, Log10 Concentration −6.0): 71%
- Percent Growth (OVCAR-3; OVCAR-3, Log10 Concentration −7.0): 102%
- Percent Growth (OVCAR-3; OVCAR-3, Log10 Concentration −8.0): 90%
- CC50 (OVCAR-3; OVCAR-3, read-out: LC50 (the source's name)): > 100 µM
- GI50 (CAKI-1; CAKI-1): 3.16 µM
- TGI (CAKI-1; CAKI-1): 5.09E−05
- Percent Growth (CAKI-1; CAKI-1, Log10 Concentration −4.0): −9%
- Percent Growth (CAKI-1; CAKI-1, Log10 Concentration −5.0): 21%
- Percent Growth (CAKI-1; CAKI-1, Log10 Concentration −6.0): 79%
- Percent Growth (CAKI-1; CAKI-1, Log10 Concentration −7.0): 103%
- Percent Growth (CAKI-1; CAKI-1, Log10 Concentration −8.0): 97%
- CC50 (CAKI-1; CAKI-1, read-out: LC50 (the source's name)): > 100 µM
- GI50 (ACHN): 7.84 µM
- TGI (ACHN): 9.48E−05
- Percent Growth (ACHN; Log10 Concentration −4.0): −1%
- Percent Growth (ACHN; Log10 Concentration −5.0): 45%
- Percent Growth (ACHN; Log10 Concentration −6.0): 94%
- Percent Growth (ACHN; Log10 Concentration −7.0): 112%
- Percent Growth (ACHN; Log10 Concentration −8.0): 102%
- CC50 (ACHN; [1]): > 100 µM
- Percent Growth (SN12C; Log10 Concentration −4.0): 217%
- Percent Growth (SN12C; Log10 Concentration −5.0): −14%
- Percent Growth (SN12C; Log10 Concentration −6.0): 51%
- Percent Growth (SN12C; Log10 Concentration −7.0): 84%
- Percent Growth (SN12C; Log10 Concentration −8.0): 87%
- CC50 (SN12C; [1]): > 100 µM
- GI50 (UO-31; UO-31): 4.75 µM
- TGI (UO-31; UO-31): >1.00E−04
- Percent Growth (UO-31; UO-31, Log10 Concentration −4.0): 20%
- Percent Growth (UO-31; UO-31, Log10 Concentration −5.0): 33%
- Percent Growth (UO-31; UO-31, Log10 Concentration −6.0): 85%
- Percent Growth (UO-31; UO-31, Log10 Concentration −7.0): 98%
- Percent Growth (UO-31; UO-31, Log10 Concentration −8.0): 86%
- CC50 (UO-31; UO-31, read-out: LC50 (the source's name)): > 100 µM
- GI50 (786-0; 786-0): 10.6 µM
- TGI (786-0; 786-0): >1.00E−04
- Percent Growth (786-0; 786-0, Log10 Concentration −4.0): 7%
- Percent Growth (786-0; 786-0, Log10 Concentration −5.0): 51%
- Percent Growth (786-0; 786-0, Log10 Concentration −6.0): 86%
- Percent Growth (786-0; 786-0, Log10 Concentration −7.0): 98%
- Percent Growth (786-0; 786-0, Log10 Concentration −8.0): 86%
- CC50 (786-0; 786-0, read-out: LC50 (the source's name)): > 100 µM
- GI50 (TK-10; TK-10): 21.9 µM
- TGI (TK-10; TK-10): 8.22E−05
- Percent Growth (TK-10; TK-10, Log10 Concentration −4.0): −7%
- Percent Growth (TK-10; TK-10, Log10 Concentration −5.0): 80%
- Percent Growth (TK-10; TK-10, Log10 Concentration −6.0): 133%
- Percent Growth (TK-10; TK-10, Log10 Concentration −7.0): 128%
- Percent Growth (TK-10; TK-10, Log10 Concentration −8.0): 117%
- CC50 (TK-10; TK-10, read-out: LC50 (the source's name)): > 100 µM
